From ChEMBL document CHEMBL1139984, “Potent and selective biphenyl azole inhibitors of adipocyte fatty acid binding protein (aFABP)” (Bioorg Med Chem Lett, 2007) come the findings set out here.

Where only a bound is given, the exact number is not on record here.

The target of assay [1] is T1, Fatty acid-binding protein, adipocyte (Homo sapiens, UniProt P15090). Kind of assay: Displacement of 1,8-ANS from aFABP by fluorescence based-assay.
Assay [2] deals with Fatty acid-binding protein, heart (Homo sapiens, UniProt P05413). Kind of assay: Displacement of 1,8-ANS from mFABP by fluorescence based-assay.
Sequence of Fatty acid-binding protein, heart (P05413 whole entry): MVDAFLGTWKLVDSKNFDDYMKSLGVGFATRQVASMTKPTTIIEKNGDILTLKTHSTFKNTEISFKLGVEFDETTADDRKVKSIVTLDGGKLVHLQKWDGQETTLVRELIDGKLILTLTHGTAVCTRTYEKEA
Assay [3] addresses Fatty acid-binding protein 5 (Homo sapiens, UniProt Q01469). The experiment in a line: Displacement of 1,8-ANS from eFABP by fluorescence based-assay.
Assay [4] addresses T1, Fatty acid-binding protein, adipocyte. Kind of assay: Displacement of [3H]2,3-bis[(2,4-dichlorobenzyl)oxy]benzoic acid from aFABP. (In general: Displacement assays read how much labelled ligand stays bound in the presence of the test substance.)
The target is the same in assay [5]. Kind of assay: Binding affinity to aFABP.
The species entered for another assay is Homo sapiens. The experiment in a line: Selectivity for aFABP over mFABP by 1,8-ANS fluorescence based-assay.

T1 sequence (P15090 whole entry): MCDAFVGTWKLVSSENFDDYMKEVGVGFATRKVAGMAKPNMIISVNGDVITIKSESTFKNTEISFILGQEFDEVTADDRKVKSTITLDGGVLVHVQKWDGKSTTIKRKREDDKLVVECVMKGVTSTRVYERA
Sequence of Fatty acid-binding protein 5 (Q01469 whole entry): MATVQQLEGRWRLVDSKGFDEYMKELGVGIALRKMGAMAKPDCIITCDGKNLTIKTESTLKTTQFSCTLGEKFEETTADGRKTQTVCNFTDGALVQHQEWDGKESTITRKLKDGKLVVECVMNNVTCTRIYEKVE

Turning to `O=C(O)COc1cccc(-c2ccccc2-c2cc(-c3ccccc3)c(-c3ccccc3)o2)c1`, the Ki is 0.036 µM in assay [1], over 1 µM in assay [2] and over 2 µM in assay [3].
For the molecule `Cn1c(-c2ccccc2-c2cccc(OCC(=O)O)c2)nc(-c2ccccc2)c1-c1ccccc1`, the values for the Ki in assay [1], in assay [4] and in assay [2] were under 0.002 µM, 0.013 µM and over 1 µM, respectively.
As for `CCn1c(-c2ccccc2-c2cccc(NCC(=O)O)c2)nc(-c2ccccc2)c1-c1ccccc1`, the Ki in assay [1] was 0.0034 µM; in assay [4] it was 0.013 µM; in assay [2], over 1 µM; in assay [3] it was over 2 µM.
Taken in the same sequence, the figures for `O=C(O)CNc1cccc(-c2ccccc2-c2nc(-c3ccccc3)c(-c3ccccc3)[nH]2)c1` were 0.018 µM, 0.3 µM, over 1 µM and over 2 µM.
With `O=C(O)COc1cccc(-c2ccccc2-c2cc(-c3ccccc3)c(-c3ccccc3)[nH]2)c1`, the Ki was 0.012 µM in assay [1], over 1 µM in assay [2] and over 2 µM in assay [3].
In the case of `O=C(O)COc1cccc(-c2ccccc2-c2nc(-c3ccccc3)c(-c3ccccc3)n2CCF)c1`, the inhibitory constant (Ki) was under 0.002 µM in assay [1], 0.0087 µM in assay [4], over 1 µM in assay [2] and over 2 µM in assay [3].
Turning to `CCc1c(-c2ccccc2)c(-c2ccccc2)nn1-c1ccccc1-c1cccc(C(=O)O)c1`, the results for the inhibition constant (Ki) in assay [1] and in assay [2] were 0.65 µM and 0.11 µM, respectively.
On to `CCc1c(-c2ccccc2)c(-c2ccccc2)nn1-c1ccccc1-c1cccc(C(O)C(=O)O)c1` (stereo not given), for which the Ki in assay [1] was 0.028 µM; in assay [2], 0.36 µM; in assay [3], 0.55 µM.
Taken in the same sequence, the figures for `O=C(O)CCCCOc1ccccc1-c1nc(-c2ccccc2)c(-c2ccccc2)o1` were 0.058 µM, 0.032 µM and over 2 µM.
The like results for `CC(C)Cn1c(-c2ccccc2-c2cccc(NCC(=O)O)c2)nc(-c2ccccc2)c1-c1ccccc1` were, in that order, 0.13 µM, over 1 µM and over 2 µM.
`CCCCCCCC/C=C\CCCCCCCC(=O)O` [OLEIC ACID] yielded a Ki in assay [3] of 0.248 µM.
Take `O=C(O)COc1cccc(-c2ccccc2-c2nc(-c3ccccc3)c(-c3ccccc3)[nH]2)c1`: the Ki is 0.0093 µM in assay [1], over 1 µM in assay [2] and over 2 µM in assay [3].
Regarding `[3H]c1c(Cl)ccc(COc2cccc(C(=O)O)c2OCc2ccc(Cl)c([3H])c2Cl)c1Cl`, the Ki was 0.002 µM in assay [1], 0.004 µM in assay [2] and 0.002 µM in assay [3]. Also, the Kd in assay [5] was determined as 0.021 µM.
As for `CCn1c(-c2ccccc2-c2cccc(OCC(=O)O)c2)nc(-c2ccccc2)c1-c1ccccc1`, the Ki in assay [1] was under 0.002 µM; in assay [4] it was 0.0033 µM; in assay [2], over 1 µM.
`Cn1c(-c2ccccc2-c2cccc(NCC(=O)O)c2)nc(-c2ccccc2)c1-c1ccccc1`: the inhibition constant Ki in assay [1] is 0.0027 µM; in assay [4], 0.048 µM; in assay [2], over 1 µM; in assay [3], over 2 µM.
In the case of `O=C(O)CNc1cccc(-c2ccccc2-c2nc(-c3ccccc3)c(-c3ccccc3)n2CC(=O)O)c1`, the Ki in assay [1] was over 2 µM; in assay [2], over 1 µM; in assay [3], over 2 µM.
For the molecule `CCc1c(-c2ccccc2-c2cccc(OCC(=O)O)c2)oc(-c2ccccc2)c1-c1ccccc1`, the values for the Ki in assay [1], in assay [4] and in assay [2] were 0.0035 µM, 0.032 µM and 0.22 µM, respectively.
As to `O=S(=O)(O)c1cccc2cccc(Nc3ccccc3)c12`, in assay [4], the inhibitory constant (Ki) was 1 µM. Also, in assay [5], the dissociation constant Kd turned out to be 0.15 µM.
Consider `O=C(O)COc1cccc(-c2ccccc2-c2nc(-c3ccccc3)c(-c3ccccc3)o2)c1`, for which the inhibitory constant (Ki) was 0.006 µM in assay [1], 0.095 µM in assay [4], over 1 µM in assay [2] and over 2 µM in assay [3]. In the assay listed under Homo sapiens, the Ratio Ki was found to be 170.

Broadly, the Ki is the dissociation constant of the complex between target and ligand, obtained from inhibition or displacement. A low value points to a stronger hold on the target. The term Kd denotes the constant that tells how readily two partners part at equilibrium.
